Measured values as given in ChEMBL document CHEMBL1201862, “PubChem BioAssay data set” (2004).
Activity calls are given as the source filed them.

Tests used:
cells = type: functional, cell-based
Streptokinase A = target: T1, Streptokinase A (Streptococcus pyogenes serotype M1, UniProt P10520); experiment: S. pyogenes streptokinase expression inhibitors, potency, dose response, plasminogen activation absorbance, OD405 (AID 1914); type: functional, Streptococcus pyogenes M1 GAS;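 also: secreted streptokinase activity via plasminogen activation per viability signal from cell pellet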
T1 sequence (P10520 whole entry): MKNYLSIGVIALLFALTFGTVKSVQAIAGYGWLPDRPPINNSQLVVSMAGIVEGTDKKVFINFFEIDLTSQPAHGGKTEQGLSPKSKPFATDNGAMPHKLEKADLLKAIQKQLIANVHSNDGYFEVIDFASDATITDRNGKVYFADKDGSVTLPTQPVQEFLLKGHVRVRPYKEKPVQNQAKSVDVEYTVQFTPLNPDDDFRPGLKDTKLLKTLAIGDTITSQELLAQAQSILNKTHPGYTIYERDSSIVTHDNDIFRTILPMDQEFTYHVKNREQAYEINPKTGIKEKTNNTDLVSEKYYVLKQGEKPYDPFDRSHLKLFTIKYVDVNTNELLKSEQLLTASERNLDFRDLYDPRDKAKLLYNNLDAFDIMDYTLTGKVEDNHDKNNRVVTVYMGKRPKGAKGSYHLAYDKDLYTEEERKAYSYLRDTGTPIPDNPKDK

[1] = NIH-3T3 fibroblast cytotoxicity, dose response, cytotoxicity control, cell-based, fluorescence, Alamar Blue, secondary assay (AID 2327); type: functional;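 also: NIH-3T3 mouse fibroblasts cultured with fluconazole at 8 µg/mL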
[2] = C. albicans growth with fluconazole, confirmation, fluorescence, retest (AID 2467); type: functional, cell-based
[3] = inhibitors of firefly luciferase expression or activity, dose response, H4 neuroglioma cells, luminescence (AID 1990); type: functional, cell-based
HEK293 = experiment: inhibitors of LMP1-driven NF-kB reporter, dose response, cell-based, HEK293, luciferase, cherry-pick (AID 588343); type: functional; settings: Homo sapiens
BJ = experiment: cytotoxicity toward Ras-transformed BJeLR fibroblasts, dose response, cell-based, alamar blue fluorescence, cherrypicked samples (AID 2631); type: functional; settings: Homo sapiens;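 also: confirmatory dose-response assay in RAS-dependent BJ fibroblasts engineered with TERT, LT and ST, with cytotoxicity read by fluorescence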
Nonstructural protein 1 = Nonstructural protein 1 (Influenza A virus, UniProt Q194T2); type: functional, Influenza A virus (A/California/07/2009(H1N1))
Chain of Nonstructural protein 1 (Q194T2 whole entry): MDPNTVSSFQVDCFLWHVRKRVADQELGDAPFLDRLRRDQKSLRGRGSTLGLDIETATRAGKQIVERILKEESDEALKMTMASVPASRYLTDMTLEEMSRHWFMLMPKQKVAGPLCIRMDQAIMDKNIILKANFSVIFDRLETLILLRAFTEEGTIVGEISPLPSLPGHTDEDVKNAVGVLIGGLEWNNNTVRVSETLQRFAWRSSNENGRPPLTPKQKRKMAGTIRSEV

[4] = tested on: Streptococcus sp. 'group A'; experiment: growth inhibition of control SK(-) GAS strain, dose response, counter-screen for streptokinase expression inhibitor project, luminescence, kanamycin, BacTiterGlo, confirmation (AID 1900); type: functional, organism-based
[5] = target: ATP-dependent molecular chaperone HSP82 (Candida albicans (strain WO-1) (Yeast), UniProt C4YTQ8); experiment: loss of DOC-induced GRE-beta-galactosidase reporter signal, dose response, Hsp90 inhibitor project, S. cerevisiae, luminescence (AID 2400); type: functional, cell-based;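 also: beta-galactosidase luminescence from glucocorticoid response element reporter as proxy for Hsp90 function; inhibitor potency where signal loss means Hsp90 inhibition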
Chain of ATP-dependent molecular chaperone HSP82 (C4YTQ8 whole entry): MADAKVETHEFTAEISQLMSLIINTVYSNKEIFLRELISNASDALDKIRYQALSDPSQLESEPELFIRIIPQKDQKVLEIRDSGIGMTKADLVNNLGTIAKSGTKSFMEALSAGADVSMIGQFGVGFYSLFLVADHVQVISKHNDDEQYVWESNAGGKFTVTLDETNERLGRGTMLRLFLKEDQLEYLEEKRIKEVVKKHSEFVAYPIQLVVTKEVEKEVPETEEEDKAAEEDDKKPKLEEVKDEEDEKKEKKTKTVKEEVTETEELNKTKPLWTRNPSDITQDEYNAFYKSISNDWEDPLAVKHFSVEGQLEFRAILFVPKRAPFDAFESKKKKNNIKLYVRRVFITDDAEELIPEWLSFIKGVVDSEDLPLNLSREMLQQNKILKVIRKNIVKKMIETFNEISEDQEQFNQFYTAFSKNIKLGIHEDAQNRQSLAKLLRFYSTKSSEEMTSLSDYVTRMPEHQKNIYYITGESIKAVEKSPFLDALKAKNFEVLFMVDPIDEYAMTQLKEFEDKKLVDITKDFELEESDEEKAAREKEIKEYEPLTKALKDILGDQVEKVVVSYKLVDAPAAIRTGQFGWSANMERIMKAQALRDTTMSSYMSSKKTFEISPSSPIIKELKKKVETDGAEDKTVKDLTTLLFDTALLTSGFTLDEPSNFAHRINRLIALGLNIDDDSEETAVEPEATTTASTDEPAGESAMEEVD

[6] = target: T2, Serine/threonine-protein phosphatase (Candida dubliniensis (strain CD36 / CBS 7987 / NCPF 3949 / NRRLY-17841) (Yeast), UniProt B9W6M3); experiment: calcineurin pathway inhibitors in yeast reporter, dose response, S. cerevisiae, CDRE-lacZ, luminescence, secondary (AID 2388); type: functional, cell-based;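 also: yeast reporter cells carrying a calcineurin-responsive lacZ construct stimulated with calcium chloride; luminescent beta-galactosidase reporter signal in whole cells rather than isolated phosphatase activity; potency for inhibition where a drop in reporter signal means calcineurin blockade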
T2 sequence (B9W6M3 whole entry): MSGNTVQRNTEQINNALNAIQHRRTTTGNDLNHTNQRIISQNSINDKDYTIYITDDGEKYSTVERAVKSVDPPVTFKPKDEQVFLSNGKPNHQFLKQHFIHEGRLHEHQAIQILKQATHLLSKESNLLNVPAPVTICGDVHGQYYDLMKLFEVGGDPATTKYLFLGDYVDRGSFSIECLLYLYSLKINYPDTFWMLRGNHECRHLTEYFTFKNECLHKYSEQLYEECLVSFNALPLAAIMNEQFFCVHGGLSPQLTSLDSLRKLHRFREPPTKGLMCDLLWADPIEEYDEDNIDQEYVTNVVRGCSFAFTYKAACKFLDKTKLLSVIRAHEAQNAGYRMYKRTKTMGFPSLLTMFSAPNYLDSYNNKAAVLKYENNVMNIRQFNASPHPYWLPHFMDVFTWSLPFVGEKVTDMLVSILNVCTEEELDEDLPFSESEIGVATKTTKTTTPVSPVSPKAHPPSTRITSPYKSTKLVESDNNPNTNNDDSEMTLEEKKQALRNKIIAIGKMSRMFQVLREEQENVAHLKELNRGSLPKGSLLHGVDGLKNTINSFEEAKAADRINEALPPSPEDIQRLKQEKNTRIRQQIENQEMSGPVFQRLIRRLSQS

[7] = inhibitors of SNCA 5'UTR-driven reporter translation, confirmation, H4 neuroglioma cells, luminescence (AID 1988); type: functional, cell-based
[8] = luciferase reporter signal reduction – luminescence, H4-C neuroglioblastoma cells, dose response (AID 2458); type: functional, cell-based;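 also: H4 neuroglioblastoma cells stably carrying a luciferase reporter gene fusion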
Streptococcus = experiment: Group A Streptococcus viability loss, dose response, counter-screen for streptokinase expression inhibitor project, luminescence, BacTiterGlo (AID 1915); type: functional, organism-based;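 also: potency for reduction of bacterial viability or growth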
[9] = Luminescence Cell-Based Dose Response HTS to Identify Inhibitors of 5'UTR Stem-Loop Driven Prion Protein mRNA Translation in H4 Neuroglioblastoma Cells. [Related pubchem assays: 1827 (Project Summary), 1813 (Primary HTS)]; type: functional
[10] = inhibitors of SNCA 5'UTR-driven translation, confirmation, luminescence, H4 neuroglioblastoma cells, dose confirmation (AID 2454); type: functional, cell-based;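 also: H4 neuroglioblastoma cells carrying an alpha-synuclein 5'UTR luciferase reporter; potency for inhibition of the luciferase signal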
[11] = target: Heat shock protein HSP 90-alpha (Homo sapiens, UniProt P07900); type: functional, organism-based
Caspase-3 = target: T3, Caspase-3 (Homo sapiens, UniProt P42574); type: functional;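 also: Dose-response selectivity test against caspase-3 for candidate inhibitors of sentrin-specific proteases (SENPs)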
T3 sequence (P42574 whole entry): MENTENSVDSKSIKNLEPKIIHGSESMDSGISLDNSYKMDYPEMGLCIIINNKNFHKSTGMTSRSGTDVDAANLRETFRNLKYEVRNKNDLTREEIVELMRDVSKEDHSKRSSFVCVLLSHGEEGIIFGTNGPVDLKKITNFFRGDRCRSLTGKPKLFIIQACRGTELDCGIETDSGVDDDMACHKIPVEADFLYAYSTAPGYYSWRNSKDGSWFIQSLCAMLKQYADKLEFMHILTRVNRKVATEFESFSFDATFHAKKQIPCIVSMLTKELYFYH

[12] = target: T4, Sentrin-specific protease 6 (Homo sapiens, UniProt Q9GZR1); type: functional;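 also: Luminescence-based dose-response confirmatory assay of SENP6 inhibition, following up an ultra-high-throughput screen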
T4 sequence (Q9GZR1 whole entry): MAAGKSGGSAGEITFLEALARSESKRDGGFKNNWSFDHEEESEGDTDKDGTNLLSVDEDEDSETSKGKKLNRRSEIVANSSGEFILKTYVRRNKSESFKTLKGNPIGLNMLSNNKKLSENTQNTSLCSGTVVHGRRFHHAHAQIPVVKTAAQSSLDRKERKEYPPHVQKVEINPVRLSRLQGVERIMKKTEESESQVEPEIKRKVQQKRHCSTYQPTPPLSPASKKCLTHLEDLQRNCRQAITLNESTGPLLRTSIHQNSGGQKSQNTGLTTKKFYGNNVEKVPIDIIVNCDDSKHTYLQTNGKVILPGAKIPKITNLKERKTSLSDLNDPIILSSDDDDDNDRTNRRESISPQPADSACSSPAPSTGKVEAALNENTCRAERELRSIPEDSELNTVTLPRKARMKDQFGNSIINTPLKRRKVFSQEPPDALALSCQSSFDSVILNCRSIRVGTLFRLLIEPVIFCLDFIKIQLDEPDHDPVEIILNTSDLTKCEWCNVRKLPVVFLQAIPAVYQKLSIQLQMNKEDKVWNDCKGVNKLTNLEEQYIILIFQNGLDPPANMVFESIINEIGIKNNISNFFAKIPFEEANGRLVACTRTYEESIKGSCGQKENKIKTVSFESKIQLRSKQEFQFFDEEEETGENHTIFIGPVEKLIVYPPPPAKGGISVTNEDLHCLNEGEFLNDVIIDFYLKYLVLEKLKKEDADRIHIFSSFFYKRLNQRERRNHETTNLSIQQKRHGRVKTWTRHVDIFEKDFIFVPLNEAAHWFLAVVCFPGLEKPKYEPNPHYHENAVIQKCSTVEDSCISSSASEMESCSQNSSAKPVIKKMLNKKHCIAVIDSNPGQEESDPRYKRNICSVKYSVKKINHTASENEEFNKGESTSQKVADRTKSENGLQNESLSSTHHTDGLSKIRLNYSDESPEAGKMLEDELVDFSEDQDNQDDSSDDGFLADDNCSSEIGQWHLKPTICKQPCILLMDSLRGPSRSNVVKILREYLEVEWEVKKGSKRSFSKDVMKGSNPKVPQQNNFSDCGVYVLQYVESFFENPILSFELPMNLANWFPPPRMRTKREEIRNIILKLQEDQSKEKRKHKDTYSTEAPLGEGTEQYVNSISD

[13] = target: T5, Sentrin-specific protease 8 (Homo sapiens, UniProt Q96LD8); type: functional;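 also: luminescence read-out of SENP8 inhibition, dose-response confirmation following an ultra-high-throughput screen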
T5 sequence (Q96LD8 whole entry): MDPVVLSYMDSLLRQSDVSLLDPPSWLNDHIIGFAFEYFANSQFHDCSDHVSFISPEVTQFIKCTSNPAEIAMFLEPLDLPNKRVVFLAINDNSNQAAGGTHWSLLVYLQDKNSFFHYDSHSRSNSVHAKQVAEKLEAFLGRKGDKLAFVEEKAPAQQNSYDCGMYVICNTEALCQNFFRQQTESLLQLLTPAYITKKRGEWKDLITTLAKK

[14] = target: T6, Sentrin-specific protease 7 (Homo sapiens, UniProt Q9BQF6); type: functional;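 also: Luminescence-based dose-response confirmation of ultra-high-throughput screening hits, measuring inhibition of SENP7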
T6 sequence (Q9BQF6 whole entry): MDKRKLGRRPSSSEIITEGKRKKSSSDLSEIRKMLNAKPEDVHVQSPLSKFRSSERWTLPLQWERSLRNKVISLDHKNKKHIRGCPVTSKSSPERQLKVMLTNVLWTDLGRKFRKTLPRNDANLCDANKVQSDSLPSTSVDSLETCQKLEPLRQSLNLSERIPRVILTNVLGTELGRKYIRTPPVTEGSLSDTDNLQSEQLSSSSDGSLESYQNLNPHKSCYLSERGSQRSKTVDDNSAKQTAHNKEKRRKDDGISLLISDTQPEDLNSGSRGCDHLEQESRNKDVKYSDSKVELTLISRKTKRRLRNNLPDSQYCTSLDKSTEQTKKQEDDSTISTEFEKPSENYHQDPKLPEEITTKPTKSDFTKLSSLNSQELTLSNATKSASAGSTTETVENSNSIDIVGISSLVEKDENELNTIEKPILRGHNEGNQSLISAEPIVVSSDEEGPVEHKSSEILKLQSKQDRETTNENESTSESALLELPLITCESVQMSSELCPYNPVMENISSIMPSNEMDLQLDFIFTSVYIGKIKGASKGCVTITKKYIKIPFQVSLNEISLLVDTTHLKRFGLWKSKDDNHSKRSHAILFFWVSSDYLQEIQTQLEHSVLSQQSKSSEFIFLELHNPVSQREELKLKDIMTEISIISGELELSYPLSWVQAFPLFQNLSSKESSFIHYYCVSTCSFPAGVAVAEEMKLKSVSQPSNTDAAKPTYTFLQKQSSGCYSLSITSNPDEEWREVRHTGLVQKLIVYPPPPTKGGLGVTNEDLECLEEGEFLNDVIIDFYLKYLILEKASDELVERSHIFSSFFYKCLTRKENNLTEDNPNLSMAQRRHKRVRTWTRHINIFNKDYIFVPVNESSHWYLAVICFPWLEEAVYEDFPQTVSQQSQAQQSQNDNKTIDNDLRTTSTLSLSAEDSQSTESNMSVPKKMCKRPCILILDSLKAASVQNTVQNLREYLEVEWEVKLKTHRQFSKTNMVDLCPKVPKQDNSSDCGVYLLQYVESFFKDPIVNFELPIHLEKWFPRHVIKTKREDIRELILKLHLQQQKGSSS

Question: Which EC50 (cells) does the source give for `O=C(N/N=C/c1cc2c3c(c1O)CCCN3CCC2)c1ccccc1O` here?
Answer: 0.687 µM (active)

Question: And the EC50 (Streptokinase A)?
Answer: > 150 µM (not active)

Question: And the EC50 [1]?
Answer: 23.7 µM (active)

Question: And the EC50 [2]?
Answer: 0.429 µM (active)

Question: And the EC50 [3]?
Answer: 2.89 µM (active)

Question: What about the AC50 (HEK293) of the same compound?
Answer: 5.6 µM (active)

Question: And the EC50 (BJ)?
Answer: 22.4 µM (active)

Question: And the IC50 (Nonstructural protein 1)?
Answer: 3.22 µM (active)

Question: And the EC50 [4]?
Answer: 8.16 µM (active)

Question: And the EC50 [5]?
Answer: 18.1 µM (active)

Question: What about the EC50 [6] of the same compound?
Answer: 18.2 µM (active)

Question: And the EC50 [7]?
Answer: < 0.1 µM (active)

Question: What about the EC50 [8] of the same compound?
Answer: 0.558 µM (active)

Question: What about the EC50 (Streptococcus) of the same compound?
Answer: 12 µM (active)

Question: And the EC50 [9]?
Answer: 0.102 µM (active)

Question: And the EC50 [10]?
Answer: 0.798 µM (active)

Question: And the AC50 [11]?
Answer: 2.14 µM (active)

Question: For `CCOC(=O)/C(=N\Nc1ncnc2ccccc12)c1ccc(OC)cc1`, which IC50 (Caspase-3) is on record?
Answer: 16.9 µM (active)

Question: And the IC50 [12]?
Answer: 5.23 µM (active)

Question: What about the IC50 [13] of the same compound?
Answer: 14.2 µM (active)

Question: What about the IC50 [14] of the same compound?
Answer: 3.39 µM (active)

Question: Which IC50 (Caspase-3) does the source give for `CC1CCCN(C(=O)c2ccc(-c3ccccc3Cl)o2)C1` (stereo unspecified) here?
Answer: 34.7 µM (active)

Question: And the IC50 [12]?
Answer: 27.6 µM (active)

Question: What about the IC50 [13] of the same compound?
Answer: 31.4 µM (active)

Question: What about the IC50 [14] of the same compound?
Answer: 15.2 µM (active)

Question: For `COc1ccc(-c2csc3ncnc(NCCO)c23)cc1`, which AC50 (HEK293) is on record?
Answer: 13.9 µM (active)

Question: With `CC(C)CC(=NNC(=O)c1ccncc1)c1cc(Cl)ccc1O` as the compound, how does the AC50 (HEK293) read?
Answer: 4.28 µM (active)

Question: For `COn1c(-c2ccccc2)nc2ccc(Cl)cc21`, which IC50 (Caspase-3) is on record?
Answer: 20.1 µM (active)

Question: What about the IC50 [12] of the same compound?
Answer: 30 µM (active)

Question: What about the IC50 [13] of the same compound?
Answer: 34.9 µM (active)

Question: What about the IC50 [14] of the same compound?
Answer: 13.1 µM (active)
